Our source for the IC50 values is patent publication US9351965B2, “Indazole derivatives useful as ERK inhibitors” (Merck Sharp & Dohme Corp., priority 2010, dated 2016).

The term IC50 denotes the concentration that gives 50% inhibition. Read a low IC50 as greater potency.

This test deals with fully phosphorylated, active Mouse ERK2 protein (Mus musculus (Mouse), UniProt P63085). As to the kind of experiment: Active ERK2 (aERK) IMAP assay. Type of test: biochemical. As to conditions: IMAP fluorescence polarization; 30 μM ATP; 30 minute pre-incubation.
Sequence of fully phosphorylated, active Mouse ERK2 protein (P63085 whole entry): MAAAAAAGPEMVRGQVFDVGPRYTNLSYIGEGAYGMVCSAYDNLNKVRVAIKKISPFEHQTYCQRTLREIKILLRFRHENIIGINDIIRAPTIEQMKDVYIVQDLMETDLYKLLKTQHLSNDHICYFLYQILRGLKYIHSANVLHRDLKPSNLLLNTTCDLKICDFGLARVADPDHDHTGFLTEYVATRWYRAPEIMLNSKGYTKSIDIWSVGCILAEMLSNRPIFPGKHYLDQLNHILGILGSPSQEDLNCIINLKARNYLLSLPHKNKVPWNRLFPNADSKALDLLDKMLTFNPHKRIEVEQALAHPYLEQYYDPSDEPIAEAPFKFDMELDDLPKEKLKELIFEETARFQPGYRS
In turn, `Cc1cc(-c2n[nH]c3ccc(C(=O)NC4CCCC(CO)(Oc5cccc(F)c5)C4)cc23)ccn1` (single isomer, unassigned) [compound 45, N-[3-(3-fluorophenoxy)-3-(hydroxymethyl)cyclohexyl]-3-(2-methyl-4-pyridinyl)-1H-indazole-5-carboxamide] yielded an IC50 of 0.187 µM.

In turn, `Cc1nc2ccc(-c3n[nH]c4ccc(C(=O)N[C@@H]5CCC[C@](O)(Cc6ccccc6F)C5)cc34)cc2s1` [compound 13, N-[3(S)-[(2-fluorophenyl)methyl]-3-hydroxy-1(R)-cyclohexyl]-3-(2-methyl-6-benzothiazolyl)-1H-indazole-5-carboxamide] gave an IC50 of 0.0199 µM.

On to `Cc1cc(-c2n[nH]c3ccc(C(=O)NC4CCCC(Oc5ccccc5Cl)C4)cc23)ccn1` (single isomer, unassigned) [compound 30, N-[3-(2-chlorophenoxy)cyclohexyl]-3-(2-methyl-4-pyridinyl)-1H-indazole-5-carboxamide], for which the IC50 was 0.0386 µM.

`Cc1nc2ccc(-c3n[nH]c4ccc(C(=O)N[C@@H]5CCC[C@](O)(Cc6ccccc6F)C5)cc34)cn2n1` [compound 12, N-[3(S)-[(2-fluorophenyl)methyl]-3-hydroxy-1(R)-cyclohexyl]-3-(2-methyl[1,2,4]triazolo[1,5-a]pyridin-6-yl)-1H-indazole-5-carboxamide] yielded a 50% inhibitory concentration (IC50) of 0.0144 µM.

On to `O=C(NC1CCCC(Cn2cncn2)C1)c1ccc2[nH]nc(-c3ccc4nccn4c3)c2c1` (stereo not shown) [compound 111, 3-imidazo[1,2-a]pyridin-6-yl-N-[3-(1H-1,2,4-triazol-1-ylmethyl)cyclohexyl]-1H-indazole-5-carboxamide], for which the IC50 came out at 0.0772 µM.

On to `Cc1cc(-c2n[nH]c3ccc(C(=O)NC4CCCC(CN5C(=O)Cc6ccccc65)C4)cc23)ccn1` (stereo not shown) [compound 120, N-[3-[(2,3-dihydro-2-oxo-1H-indol-1-yl)methyl]cyclohexyl]-3-(2-methyl-4-pyridinyl)-1H-indazole-5-carboxamide], for which the IC50 was found to be 0.0174 µM.

Molecule `Cc1cc(-c2n[nH]c3ccc(C(=O)NC4CCCC(F)(Cc5ccccc5F)C4)cc23)ccn1` (racemic) [compound 54, N-[3-fluoro-3-[(2-fluorophenyl)methyl]cyclohexyl]-3-(2-methyl-4-pyridinyl)-1H-indazole-5-carboxamide (racemic)] displayed a half-inhibitory concentration (IC50) of 1 µM.

Turning to `Cc1cc(-c2n[nH]c3ccc(C(=O)N[C@@H]4CCC[C@](O)(Cn5cc6ccccc6n5)C4)cc23)ccn1` (relative stereo) [compound 90, N-[trans-3-hydroxy-3-(2H-indazol-2-ylmethyl)cyclohexyl]-3-(2-methyl-4-pyridinyl)-1H-indazole-5-carboxamide], inhibition was half-maximal at 0.0274 µM (IC50).

Turning to `Cc1cc(-c2n[nH]c3ccc(C(=O)NC4CCCC(Cc5ccc(F)cc5)(C(=O)O)C4)cc23)ccn1` (stereo not shown) [compound 136, 1-[(4-fluorophenyl)methyl]-3-[[[3-(2-methyl-4-pyridinyl)-1H-indazol-5-yl]carbonyl]amino]cyclo-hexanecarboxylic acid], the IC50 is 0.302 µM.

Regarding `Cc1cc(-c2n[nH]c3ccc(C(=O)N[C@@H]4CCC[C@](O)(Cn5cc6cccnc6n5)C4)cc23)ccn1` (relative stereo) [compound 73, N-[trans-3-hydroxy-3-(2H-pyrazolo[3,4-b]pyridin-2-ylmethyl)cyclohexyl]-3-(2-methyl-4-pyridinyl)-1H-indazole-5-carboxamide], the IC50 worked out at 0.616 µM.

Take `Cc1cc(-c2n[nH]c3ccc(C(=O)N[C@@H]4CCC[C@@](O)(Cn5ncc6ccccc65)C4)cc23)ccn1` [compound 66, N-[3(S)-hydroxy-3-(1H-indazol-1-ylmethyl)-1(R)-cyclohexyl]-3-(2-methyl-4-pyridinyl)-1H-indazole-5-carboxamide]: it took 0.007 µM to reach half-maximal inhibition (IC50).

`COc1cccc(F)c1C[C@@]1(O)CCC[C@@H](NC(=O)c2ccc3[nH]nc(-c4ccnc(C)c4)c3c2)C1` [compound 22, N-[3(S)-[(2-fluoro-6-methoxyphenyl)methyl]-3-hydroxy-1(R)-cyclohexyl]-3-(2-methyl-4-pyridinyl)-1H-indazole-5-carboxamide] yielded an IC50 of 0.002 µM.

Take `CC(C)Oc1ccc(-c2n[nH]c3ccc(C(=O)NN4CCCC4CCc4ccccc4)cc23)cn1` (stereo not shown) [compound 144, 3-[6-(1-methylethoxy)-3-pyridinyl]-N-[2-(2-phenylethyl)-1-pyrrolidinyl]-1H-indazole-5-carboxamide]: the IC50 worked out at 0.497 µM.

For the molecule `Cc1cc(-c2n[nH]c3ccc(C(=O)NC4CCCC(O)(C(O)c5ccccc5)C4)cc23)ccn1` (stereo not shown) [compound 51, N-[3-hydroxy-3-(hydroxyphenylmethyl)cyclohex-yl]-3-(2-methyl-4-pyridinyl)-1H-indazole-5-carboxamide (diasterimer 3)], the 50% inhibitory concentration (IC50) turned out to be 0.204 µM.

Turning to `Cc1cc(-c2n[nH]c3ccc(C(=O)NC4CCCC(O)(C(F)(F)c5ccccc5)C4)cc23)ccn1` (stereo not shown) [compound 48, N-[3-(difluorophenylmethyl)-3-hydroxycyclohexyl]-3-(2-methyl-4-pyridinyl)-1H-indazole-5-carboxamide], the 50% inhibitory concentration (IC50) came to 0.106 µM.

`Cc1cc(-c2n[nH]c3ccc(C(=O)NC4CCCC(Cn5cnc6cccnc65)C4)cc23)ccn1` (stereo not shown) [compound 118, N-[3-(3H-imidazo[4,5-b]pyridin-3-ylmethyl)cyclohexyl]-3-(2-methyl-4-pyridinyl)-1H-indazole-5-carboxamide] yielded a 50% inhibitory concentration (IC50) of 0.0608 µM.

Turning to `Cn1cc2cc(-c3n[nH]c4ccc(C(=O)NC5CCCC(Cn6cnc7ccccc76)C5)cc34)ccc2n1` (stereo not shown) [compound 109, N-[3-(1H-benzimidazol-1-ylmethyl)cyclohexyl]-3-(2-methyl-2H-indazol-5-yl)-1H-indazole-5-carboxamide], the IC50 came to 0.0211 µM.

Regarding `O=C(N[C@@H]1CCC[C@](O)(Cc2c(F)cccc2F)C1)c1ccc2[nH]nc(-c3ccc4ncsc4c3)c2c1` [compound 20, 3-(6-benzothiazolyl)-N-[3(S)-[(2,6-difluorophenyl)methyl]-3-hydroxy-1(R)-cyclohexyl]-1H-indazole-5-carboxamide], the IC50 came out at 0.0339 µM.

`Cc1cc(-c2n[nH]c3ccc(C(=O)NC4CCCC(CO)(Cc5ccc(F)cc5F)C4)cc23)ccn1` (stereo not shown) [compound 134, N-[3-[(2,4-difluorophenyl)methyl]-3-(hydroxymethyl)cyclohexyl]-3-(2-methyl-4-pyridinyl)-1H-indazole-5-carboxamide] gave an IC50 of 0.436 µM.

`Cc1cc(-c2n[nH]c3ccc(C(=O)N[C@@H]4CCCC(F)(Cc5ccccc5F)C4)cc23)ccn1` (single isomer, unassigned; isomer 1) [compound 55] came in with an IC50 of 1 µM.

`Cc1cc(-c2n[nH]c3ccc(C(=O)N[C@@H]4CCC[C@](O)(Cn5cncn5)C4)cc23)ccn1` (relative stereo) [compound 63, N-[trans-3-hydroxy-3-(1H-1,2,4-triazol-1-ylmethyl)cyclohexyl]-3-(2-methyl-4-pyridinyl)-1H-indazole-5-carboxamide] came in with an IC50 of 0.197 µM.

Consider `Cc1cc(-c2n[nH]c3ccc(C(=O)NC4CCC(CO)(Cc5ccccc5F)C4)cc23)ccn1` (stereo not shown) [compound 138, N-[3-[(2-fluorophenyl)methyl]-3-(hydroxymethyl)cyclopentyl]-3-(2-methyl-4-pyridinyl)-1H-indazole-5-carboxamide], for which half-maximal inhibition (IC50) was put at 0.0192 µM.

`Cc1cc(-c2n[nH]c3ccc(C(=O)N[C@H]4CCC[C@](O)(Cn5ncc6ccc(C(F)(F)F)cc65)C4)cc23)ccn1` (relative stereo) [compound 106, N-[cis-3-hydroxy-3-[[6-(trifluoromethyl)-1H-indazol-1-yl]methyl]cyclohexyl]-3-(2-methyl-4-pyridinyl)-1H-indazole-5-carboxamide] displayed an IC50 of 0.107 µM.

Turning to `Cc1cc(-c2n[nH]c3ccc(C(=O)NC4CCCC(Cn5ncc6ccncc65)C4)cc23)ccn1` (stereo not shown) [compound 115, 3-(2-methyl-4-pyridinyl)-N-[3-(1H-pyrazolo[3,4-c]pyridin-1-ylmethyl)cyclohexyl]-1H-indazole-5-carboxamide], the IC50 turned out to be 0.0338 µM.

Turning to `Cc1cc(-c2n[nH]c3ccc(C(=O)N[C@@H]4CCC[C@](O)(Cn5cnc6ncccc65)C4)cc23)ccn1` (relative stereo) [compound 71, N-[trans-3-hydroxy-3-(1H-imidazo[4,5-b]pyridin-1-ylmethyl)cyclohexyl]-3-(2-methyl-4-pyridinyl)-1H-indazole-5-carboxamide], the 50% inhibitory concentration (IC50) was found to be 0.464 µM.

As for `Cc1cc(-c2n[nH]c3ccc(C(=O)NC4CCCC(Oc5c(C)cccc5C)C4)cc23)ccn1` (stereo not shown) [compound 31, N-[3-(2,6-dimethylphenoxy)cyclohexyl]-3-(2-methyl-4-pyridinyl)-1H-indazole-5-carboxamide], the half-inhibitory concentration (IC50) turned out to be 0.469 µM.

In the case of `Cc1cc(-c2n[nH]c3ccc(C(=O)NC4CCCC(O)(Cc5ccccc5F)C4)cc23)ccn1` (single isomer, unassigned) [compound 1, N-[3-[(2-fluorophenyl)methyl]-3-hydroxycyclo-hexyl]-3-(2-methyl-4-pyridinyl)-1H-indazole-5-carboxamide], the half-inhibitory concentration (IC50) stood at 0.589 µM.

With `Cc1cc(-c2n[nH]c3ccc(C(=O)NC4CCCC(Oc5ccccc5F)C4)cc23)ccn1` (single isomer, unassigned) [compound 28, N-[3-(2-fluorophenoxy)cyclohexyl]-3-(2-methyl-4-pyridinyl)-1H-indazole-5-carboxamide], the half-maximal inhibitory concentration (IC50) was determined as 0.113 µM.

`Cc1cc(-c2n[nH]c3ccc(C(=O)NC4CCCC(Cn5cc6cccnc6n5)C4)cc23)ccn1` (stereo not shown) [compound 113, 3-(2-methyl-4-pyridinyl)-N-[3-(2H-pyrazolo[3,4-b]pyridin-2-ylmethyl)cyclohexyl]-1H-indazole-5-carboxamide] gave a 50% inhibitory concentration (IC50) of 0.164 µM.

`Cc1cc(-c2n[nH]c3ccc(C(=O)NC4CCCC(O)(Cc5c(F)cccc5F)C4)cc23)ccn1` (single isomer, unassigned) [compound 8, N-[3-[(2,6-difluorophenyl)methyl]-3-hydroxycyclohexyl]-3-(2-methyl-4-pyridinyl)-1H-indazole-5-carboxamide] yielded an IC50 of 1 µM.

For `Cc1cc(-c2n[nH]c3ccc(C(=O)NN4CCCC(CO)(Oc5cc(F)ccc5F)C4)cc23)ccn1` (stereo not shown) [compound 147, N-[3-(2,5-difluorophenoxy)-3-(hydroxymethyl)-1-piperidinyl]-3-(2-methyl-4-pyridinyl)-1H-indazole-5-carboxamide], the concentration for half-maximal inhibition (IC50) is 0.388 µM.
